In the test the test system is Human alphaherpesvirus 1. The experiment in a line: Antiviral activity against HSV1 assessed as plaque reduction at 30 to 200 […]. Set-up: scale not given: the % may be the effect or the level left. In kind it is functional.

Structures are written as SMILES.

Turning to `CC1(C)C[C@H](O)C[C@@]2(C)[C@H]1CC[C@H]1C[C@H]3C[C@]12CC[C@]3(C)O[C@@H]1O[C@H](CO)[C@@H](O)[C@H](O)[C@H]1O` [STEMODINOSIDE B], the Activity worked out at 77%.

(Values after ChEMBL document CHEMBL1158997, “New Stemodane Diterpenes from Stemodia maritima” (1992).)
